Data published in patent US20110028504A1, “Formulation of radioprotective alpha beta unsaturated aryl sulfones” (ONCONOVA THERAPEUTICS, INC., priority 2005, published 2011).

How the values were obtained:
Type in all cases: physicochemical
[1] = Determination of pKa from saturated solubility at different pH
Experimental: The pKa of the weakly acidic drug is determined from pH-solubility data using the equation provided below.
Where Cs=observed solubility and C0=intrinsic solubility of the compound,
Since the drug is weakly acidic, its intrinsic solubility is assumed to be the solubility at a very low pH (pH=4) where the contribution due to ionization is minimal.

[2] = pH solubility testing in McIlvaine type buffer; details: thermodynamic from solid, read-out: Observed Solubility (C5)
Experimental: The solubility of ON.1210.Na salt is tested in McIlvaine type buffer with 0.1 M ionic strength. The buffers are prepared using the recipe mentioned in Table 17 The final pH is adjusted using 0.1N sodium hydroxide or 0.1N hydrochloric acid until the pH is within ±0.1 pH units of the target pH. The pKa of the drug calculated from pH-solubility study is depicted in Table 19. The solubility of the ON.1210.Na salt is tested in a McIlvaine type buffer with 0.1 M ionic strength. The buffers are prepared using the recipe mentioned in Table 16 using various volumes of 0.15 M citric acid monohydrate, and 0.2 M sodium phosphate dibasic, 12 hydrate. The final pH is adjusted using 0.1N sodium hydroxide or 0.1N hydrochloric acid until the pH is within ±0.1 pH units of the target pH. The samples for the pH solubility study are prepared by adding 10-20 mg of ON.1210.Na salt to a 4 mL vial. Then 1 mL of the appropriate pH buffer is added to the vial. The solution is mixed on a vortex genie for approximately 30 seconds. If the solution looks clear, additional drug is added. No additional drug is added to solutions which appear to be clear at a concentration of greater than 50 mg/mL. The study is done in duplicate. Once the solutions are prepared, the initial pH of the samples are measured. The solutions are then protected from light, and placed on a shaker. The solutions are agitated for 24 to 96 hours at ambient conditions. The vials are then removed from the orbital shaker, and the final pH of the solutions is measured for each sample. The solutions are then filtered, and analyzed by HPLC.

[3] = Solid-state stability at 75° C.
Experimental: The stability of ON.1210.Na in the solid state is determined by exposing the drug at 75° C. over a prolonged time. The sample is crimped in a 10 mL injection vial and kept at the above temperature. The sample is collected after 15 days and one month and reconstituted with diluting solution and its concentration is determined by HPLC. Appearance of any additional peak in the chromatogram is also noted. A control sample is represented by ON.1210.Na not exposed to 75° C. and reconstituted to a known concentration with diluting solution.

[4] = Saturated solubility in different solvent systems
[5] = Octanol-water partition coefficient; details: 25° C., n-octanol and HPLC water, triplicate; pH of the aqueous phase 8.1
Experimental: The octanol-water partition coefficient of the drug is determined at 25° C. Equal volumes (10 ml) saturated solution of ON.1210.Na in n-octanol and HPLC water are equilibrated at 25° C. in a shaking water bath for 48 hours. The pH of the aqueous phase is also determined. At a predetermined time, a known volume of both the organic and aqueous phase is collected via a filtered needle. Subsequently, the concentration of ON.1210.Na is determined by HPLC after adequate dilution.
The octanol-water partition coefficient of the drug is determined at 25° C. using equal volumes (10 ml) of saturated solution of ON.1210.Na in n-octanol and HPLC water. Similarly, the partition coefficient is determined using simulated gastric and intestinal fluid without enzymes. The octanol-water partition coefficient is determined using the following equation: […]

[6] = Forced degradation studies (HPLC)
Experimental: In order to establish the specificity of this assay procedure several forced degradation studies were conducted as follows:
The ON.1210.Na sample is prepared in HPLC grade water at a concentration of 200 μg/mL. All the peaks detected in the chromatogram at time zero are noted with their corresponding retention time and absolute peak areas. The solution is crimped into a 5 mL glass vial and autoclaved. After autoclaving, the sample is filtered through a 0.1μ filter and 20 μL of the filtered sample is analyzed. The absolute peak area of the peak after autoclaving and appearance of any additional peaks due to possible degradation is shown in Table 9.
One ml of the 500 μg/mL standard solution is mixed with 1 mL of 0.1 N HCl. The sample is cloudy in appearance and filtered prior to HPLC analysis. All the peaks detected in the chromatogram at time zero are noted with their corresponding retention time and absolute peak areas. The solution is crimped into a 5 mL glass vial and autoclaved. After autoclaving, the sample is filtered through a 0.1μ filter and […] of the filtered sample is analyzed by HPLC. The absolute peak areas of the peak after autoclaving, and appearance of any other peaks due to possible degradation are noted.
One ml of the 500 μg/mL standard solution is mixed with 1 mL of 0.1 N NaOH. The sample is clear in appearance. All the peaks detected in the chromatogram at time zero are noted with their corresponding retention time and absolute peak area. The solution is crimped into a 5 mL glass vial and autoclaved. After autoclaving, the sample is filtered through a 0.1μ filter and 20 μL of the filtered sample is analyzed. The absolute peak area of the peaks after autoclaving and appearance of any other peaks due to possible degradation are noted.
A solid drug sample (ON1210), after autoclaving in a crimped vial, is also evaluated for any degradation using the developed HPLC method. The sample, after autoclaving, is used to make a standard solution of 400 μg/mL and injected onto HPLC.
In this study, 30% of the hydrogen peroxide is diluted to 3% (v/v) with water. One ml of the 500 μg/mL standard solution is mixed with 1 mL of 3% hydrogen peroxide; then incubated at 50° C. over a period of two hours. All the peaks detected in the chromatogram at different time points are noted with their corresponding retention time and absolute peak areas. The chromatograms are run for 30 minute periods.

O=C([O-])c1ccc(/C=C/S(=O)(=O)Cc2ccc(Cl)cc2)cc1.[Na+] [ON.1210.Na, (E)-4-Carboxystyryl-4-chlorobenzylsulfone, Sodium Salt]
Solubility ([1]; aqueous buffer, thermodynamic from solid, assumed to be the solubility at pH 4, read-out: intrinsic solubility): 0.154 µg/mL | pKa ([1]; calculated from solubility at pH 5): 2.61 | pKa ([1]; calculated from solubility at pH 6): 2.33 | pKa ([1]; calculated from solubility at pH 7.4): 2.54 | pKa ([1]; calculated from solubility at pH 8): 2.96 | pKa ([1]; calculated from solubility at pH 9): 3.82 | Solubility ([2]; pH 4, aqueous buffer): 0.154 µg/mL | Solubility ([2]; pH 5, aqueous buffer): 37.9 µg/mL | Solubility ([2]; pH 6, aqueous buffer): 715 µg/mL | Solubility ([2]; pH 7.4, aqueous buffer): 11100 µg/mL | Solubility ([2]; pH 8, aqueous buffer): 16800 µg/mL | Solubility ([2]; pH 9, aqueous buffer): 23300 µg/mL | accelerated solid-state stability of the bulk drug substance [3]: no evidence of degradation | Solubility ([4]; 0.25% Tween 80 in phosphate buffer, pH of solution 8.45): 9500 µg/mL | Solubility ([4]; 0.5% Tween 80 in phosphate buffer, pH of solution 8.41): 9800 µg/mL | Solubility ([4]; 1% Tween 80 in phosphate buffer, pH of solution 8.45): 8900 µg/mL | Solubility ([4]; 2% Tween 80 in phosphate buffer, pH of solution 8.39): 9700 µg/mL | Solubility ([4]; 2% tween 80 in water, pH of solution 8.78): 9000 µg/mL | Solubility ([4]; 10% cyclodextran, 24 hours of equilibration, pH of solution 8.14): 46000 µg/mL | Solubility ([4]; 10% cyclodextran, 48 hours of equilibration, pH of solution 8.41): 41000 µg/mL | Solubility ([4]; 50% PEG400:water, pH of solution 7.53): 40000 µg/mL | Solubility ([4]; 50:50 PEG400:ethanol, pH of solution 8.46): 37000 µg/mL | Solubility ([4]; PEG300 (IP10 g/kg), pH of solution 8.21): 52040 µg/mL | octanol:water partition coefficient [5]: 1.28-2.87 | stability of the aqueous solution on autoclaving ([6]; 200 μg/mL in water): stable under autoclaving conditions | degradation under alkaline condition ([6]; 0.05N NaOH, autoclaving): Significantly more degradation is present under alkaline condition | degradation upon autoclaving ([6]; in presence of strong acid (0.05N HCl)): less than 10% | stability of the solid on autoclaving ([6]; solid drug autoclaved in a crimped vial, then 400 μg/mL by HPLC): stable under the autoclaving conditions
